Results published in patent US5232684A, “Labelled resiniferatoxin, compositions thereof, and methods for using the same” (priority 1990, dated 1993).

How the values were obtained:
CD-1 mice = experiment: Induction of hypothermia in CD-1 mice; assay type: in vivo, mouse; conditions: 10^-5 g/kg s.c.
Source text: (§1) [^3 H]RTX (37 Ci/mmol) is synthesized by esterification of resiniferonol 9,13,14-orthophenylacetate (Chemicals for Cancer Research, Inc., Chaska, MN) at the C20 position with [^3 H]homovanillic acid (Chemical Synthesis and Analysis Laboratory, NCI-FCRF, Frederick, MD). The labelled compound is purified on HPLC and cochromatographed with authentic RTX (Chemicals for Cancer Research, Inc., Chaska, MN). The biological activity of [^3 H]RTX is confirmed in 2 assays: induction of hypothermia in CD-1 mice (10^-5 g/kg s.c.) and induction of ear edema in Sprague-Dawley rats (2×10^-7 g/ear).

Sprague-Dawley rats = experiment: Induction of ear edema in Sprague-Dawley rats; assay type: in vivo, rat; conditions: 2×10^-7 g/ear
Source text: as §1

[1] = target: T1, capsaicin receptor (chicken DRG) (Gallus gallus, UniProt Q8QFN9); experiment: [^3H]RTX binding to chicken DRG membranes
T1 construct: homotetramer
T1 sequence (Q8QFN9 1-843): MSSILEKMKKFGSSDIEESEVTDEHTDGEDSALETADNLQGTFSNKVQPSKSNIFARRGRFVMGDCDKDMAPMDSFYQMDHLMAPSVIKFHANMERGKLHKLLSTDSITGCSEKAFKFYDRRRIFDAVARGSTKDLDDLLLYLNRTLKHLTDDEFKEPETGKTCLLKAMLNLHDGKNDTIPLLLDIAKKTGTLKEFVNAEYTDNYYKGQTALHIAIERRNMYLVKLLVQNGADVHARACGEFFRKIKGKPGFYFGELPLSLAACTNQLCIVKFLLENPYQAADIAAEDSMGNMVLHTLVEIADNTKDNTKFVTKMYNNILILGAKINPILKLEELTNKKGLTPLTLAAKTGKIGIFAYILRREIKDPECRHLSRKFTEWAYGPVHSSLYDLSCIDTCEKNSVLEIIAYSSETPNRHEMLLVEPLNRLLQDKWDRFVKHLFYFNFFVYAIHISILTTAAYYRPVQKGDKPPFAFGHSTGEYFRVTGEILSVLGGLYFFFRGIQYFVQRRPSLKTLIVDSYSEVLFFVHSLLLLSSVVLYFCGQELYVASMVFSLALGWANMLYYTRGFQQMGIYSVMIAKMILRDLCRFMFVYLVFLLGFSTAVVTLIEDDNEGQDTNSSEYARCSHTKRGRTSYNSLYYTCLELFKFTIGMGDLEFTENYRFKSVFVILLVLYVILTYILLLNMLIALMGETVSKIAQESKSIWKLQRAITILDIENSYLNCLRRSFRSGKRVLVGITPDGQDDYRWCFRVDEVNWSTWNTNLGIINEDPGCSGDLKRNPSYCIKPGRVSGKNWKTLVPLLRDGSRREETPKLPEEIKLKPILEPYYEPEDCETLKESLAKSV

[2] = tested on: capsaicin receptor (porcine DRG subcellular fractions); assay type: binding, pig
Procedure: Subcellular fractions are prepared by a modification of the method of Bastiaensen et al. (Bastiaensen, E., Miserez, B. and De Potter, W., Subcellular fractionation of bovine ganglion stellatum: co-storage of noradrenaline, Met-enkephalin and neuropeptide Y in large `dense-cored` vesicles, Brain Res., 442 (1988) 124-130. ) Briefly: DRG are dissected free from capsule, cut into small pieces with scissors, and then homogenized with a teflon pestle (20 strokes) in ice-cold 0.25 M sucrose/ 20 mM Tris-Cl (pH 7.4) buffer. The homogenate is filtered over surgical gauze; it is then centrifuged for 10 min at 2000 gmax, giving a pellet P1, and again at 10 000 gmax for 15 min giving a pellet P2. The P1 and P2 pellets are saved as nuclear and mitochondrial fractions for binding studies. […]
(§2) The binding assays are carried out in a volume of 250 ul, containing assay buffer (same as the disrupting buffer but omitting DTT and EGTA and including 0.75 mM CaCl2), 26-30 ug of membrane protein and 0.25 mg/ml bovine serum albumin. […] An aliquot of 50 ul of the mixture is removed to determine total radioactivity. The filters are washed with 100 ml of ice-cold 20 mM Tris-Cl, pH 7 4, containing 0.1 mg/ml bovine serum albumin, and the bound radioactivity is determined by scintillation counting. Non-specific binding is determined in the presence of 100-1000 nM non-radioactive RTX. […]

rat cerebellum = experiment: [^3H]RTX binding to rat cerebellum
substantia nigra = experiment: [^3H]RTX binding to rat substantia nigra
Procedure: Membrane preparations are obtained from the DRG and Gasser ganglia of female Sprague-Dawley rats (250-300 g); animals are sacrificed by decapitation under ether anesthesia, the ganglia removed and collected into ice-cold disrupting buffer (5 mM KCl, 5.8 mM NaCl, 2 mM MgCl2, 12 mM glucose, 137 mM sucrose, 10 mM HEPES, 5 mM DTT, 2 mM EGTA, pH 7.4). After homogenization with the aid of a Polytron tissue homogenizer, samples are filtered over surgical gauze and then washed twice with the same buffer and stored at -70° C. […]
as §2

C=C(C)[C@]12C[C@@H](C)[C@@]34O[C@](Cc5ccccc5)(O[C@@H]1[C@@H]3C=C(COC(=O)Cc1ccc(O)c(OC)c1)C[C@]1(O)C(=O)C(C)=C[C@@H]41)O2 [[^3 H]RTX, [^3 H]resiniferatoxin]
biological activity: induction of hypothermia (CD-1 mice): confirmed | biological activity: induction of ear edema (Sprague-Dawley rats): confirmed | binding in DRG from chickens [1]: not detected | specific [^3H]RTX binding, microsomal/plasma membrane fraction over mitochondrial fraction ([2]; fixed 300 pM [^3H]RTX, preliminary): 5 fold | specific [^3H]RTX binding in the nuclear pellet ([2]; nuclear pellet): No specific [^3 H]RTX binding | specific binding (rat cerebellum): no specific binding | detection of [^3H]RTX binding (substantia nigra): very difficult
